# US9382197B2, “Substituted hydroxamic acids and uses thereof” (Millennium Pharmaceuticals, Inc., priority 2010, dated 2016)
# Biological target: T1, purified human HDAC6 (Homo sapiens, UniProt Q9UBN7)
# T1 construct: purchased BPS Bioscience 5006
# T1 sequence (Q9UBN7 1-1215): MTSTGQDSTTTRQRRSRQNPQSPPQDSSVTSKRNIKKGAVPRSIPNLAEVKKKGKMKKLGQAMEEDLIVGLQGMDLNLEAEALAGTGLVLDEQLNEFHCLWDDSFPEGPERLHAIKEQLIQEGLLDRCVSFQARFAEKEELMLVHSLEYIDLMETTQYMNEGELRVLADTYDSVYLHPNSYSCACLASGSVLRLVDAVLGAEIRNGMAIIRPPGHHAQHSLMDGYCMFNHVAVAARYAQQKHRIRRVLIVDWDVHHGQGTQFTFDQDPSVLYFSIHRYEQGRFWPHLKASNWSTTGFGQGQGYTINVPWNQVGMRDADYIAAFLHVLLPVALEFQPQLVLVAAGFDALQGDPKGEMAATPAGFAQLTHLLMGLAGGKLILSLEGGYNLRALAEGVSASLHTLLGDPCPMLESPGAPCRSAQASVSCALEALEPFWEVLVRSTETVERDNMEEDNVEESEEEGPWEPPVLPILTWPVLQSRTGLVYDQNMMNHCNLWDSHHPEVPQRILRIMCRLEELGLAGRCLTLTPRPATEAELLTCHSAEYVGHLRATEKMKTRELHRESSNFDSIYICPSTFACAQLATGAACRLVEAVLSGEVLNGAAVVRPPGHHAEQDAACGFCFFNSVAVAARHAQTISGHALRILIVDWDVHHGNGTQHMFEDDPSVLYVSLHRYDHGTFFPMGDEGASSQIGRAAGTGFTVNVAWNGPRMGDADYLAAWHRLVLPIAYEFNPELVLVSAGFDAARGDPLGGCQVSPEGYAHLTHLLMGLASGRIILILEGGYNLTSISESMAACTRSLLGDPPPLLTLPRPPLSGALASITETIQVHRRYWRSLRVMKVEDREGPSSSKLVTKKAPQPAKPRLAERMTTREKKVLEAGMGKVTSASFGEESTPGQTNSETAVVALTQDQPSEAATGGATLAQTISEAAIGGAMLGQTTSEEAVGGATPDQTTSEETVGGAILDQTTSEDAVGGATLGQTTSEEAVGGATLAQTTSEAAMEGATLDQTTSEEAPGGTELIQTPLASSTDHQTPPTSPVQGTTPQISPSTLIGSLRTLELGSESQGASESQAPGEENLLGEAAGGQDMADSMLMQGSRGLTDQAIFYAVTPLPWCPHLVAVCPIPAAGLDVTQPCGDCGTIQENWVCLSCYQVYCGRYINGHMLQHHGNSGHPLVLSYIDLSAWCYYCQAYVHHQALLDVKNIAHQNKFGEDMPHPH
# Experiment: HDAC6 Enzyme Assay
# Assay type: biochemical
# Method in brief: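 Purified human HDAC6 incubated 1 h at 30 °C with Ac-Arg-Gly-Lys(Ac)-AMC and compound; trichostatin A stop, trypsin release of AMC, fluorescence Ex 340/Em 460 nm. IC50 from concentration–response relative to DMSO.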
# [1] = bin: greater than 500 nM and less than 1 μM (lower bound in nM, upper bound in μM)
# [2] = purified human HDAC6, substrate Ac-Arg-Gly-Lys(Ac)-AMC, 1 hour at 30° C., reported as bins
SMILES,IC50 [2],further results
"Cc1nc(C(F)(F)F)c(C(=O)NC(c2ccc(C(=O)NO)cc2)C(C)C)s1 (stereo not shown) [Compound I-139, N-(1-{4-[(hydroxyamino)carbonyl]phenyl}-2-methylpropyl)-2-methyl-4-(trifluoromethyl)-1,3-thiazole-5-carboxamide]",,IC50 [1]: 500 to 1000 nM
"C[C@@H](NC(=O)Nc1cccc2ccccc12)c1ccc(C(=O)NO)cc1 [Compound I-527, N-hydroxy-4-((1R)-1-{[(1-naphthylamino)carbonyl]amino}ethyl)benzamide]",< 100 nM,
"CC(NC(=O)Nc1cccc(C(F)(F)F)c1)c1ccc(C(=O)NO)cc1 (stereo not shown) [Compound I-371, N-hydroxy-4-{1-[({[3-(trifluoromethyl)phenyl]amino}carbonyl)amino]ethyl}benzamide]",< 100 nM,
"CC(C)(C)C(NC(=O)c1ccc(-c2ccccc2)cc1)c1ccc(C(=O)NO)cc1 (stereo not shown) [Compound I-355, N-(1-{4-[(hydroxyamino)carbonyl]phenyl}-2,2-dimethylpropyl)biphenyl-4-carboxamide]",100 to 500 nM,
"C[C@@H](NC(=O)Nc1ccccc1-c1ccccc1)c1ccc(C(=O)NO)cc1 [Compound I-523, 4-((1R)-1-{[(biphenyl-2-ylamino)carbonyl]amino}ethyl)-N-hydroxybenzamide]",< 100 nM,
"CCc1cc(C(=O)NC(C)c2cccc(C(=O)NO)c2)n(C)n1 (stereo not shown) [Compound I-216, 3-ethyl-N-(1-{3-[(hydroxyamino)carbonyl]phenyl}ethyl)-1-methyl-1H-pyrazole-5-carboxamide]",,IC50 [1]: 500 to 1000 nM
"Cc1noc(C)c1C(=O)NC(c1ccc(C(=O)NO)cc1)C(C)(C)C (stereo not shown) [Compound I-200, N-(1-{4-[(hydroxyamino)carbonyl]phenyl}-2,2-dimethylpropyl)-3,5-dimethylisoxazole-4-carboxamide]",,IC50 (bin: greater than 1 μM): > 1000 nM
"CC(C)C(NC(=O)C1(c2ccccc2)CCCC1)c1ccc(C(=O)NO)cc1 (stereo not shown) [Compound I-258, N-hydroxy-4-(2-methyl-1-{[(1-phenylcyclopentyl)carbonyl]amino}propyl)benzamide]",100 to 500 nM,
"CC(NS(=O)(=O)c1ccccc1)c1ccc(C(=O)NO)cc1 (stereo not shown) [Compound I-315, N-hydroxy-4-{1-[(phenylsulfonyl)amino]ethyl}benzamide]",100 to 500 nM,
"CC(C)C(NC(=O)c1cc(C(F)(F)F)ccc1C(F)(F)F)c1ccc(C(=O)NO)cc1 (stereo not shown) [Compound I-155, N-(1-{4-[(hydroxyamino)carbonyl]phenyl}-2-methylpropyl)-2,5-bis(trifluoromethyl)benzamide]",,IC50 (bin: greater than 1 μM): > 1000 nM
"COc1ccc(C(=O)NC(C)c2cccc(C(=O)NO)c2)cc1 (stereo not shown) [Compound I-202, N-hydroxy-3-{1-[(4-methoxybenzoyl)amino]ethyl}benzamide]",100 to 500 nM,
"C[C@H](NC(=O)c1cccn1C)c1ccc(C(=O)NO)cc1 [Compound I-25, N-((1S)-1-{4-[(hydroxyamino)carbonyl]phenyl}ethyl)-1-methyl-1H-pyrrole-2-carboxamide]",< 100 nM,
"CC(NC(=O)C1CCC1)c1ccc(C(=O)NO)cc1 (stereo not shown) [Compound I-21, 4-{1-[(cyclobutylcarbonyl)amino]ethyl}-N-hydroxybenzamide]",100 to 500 nM,
"COc1cc(C(=O)NO)ccc1C(C)NC(=O)c1cc2ccccc2s1 (stereo not shown) [Compound I-480, N-(1-{4-[(hydroxyamino)carbonyl]-2-methoxyphenyl}ethyl)-1-benzothiophene-2-carboxamide]",100 to 500 nM,
"O=C(NO)c1ccc([C@@H](NC(=O)C23CC4CC(CC(C4)C2)C3)c2ccccc2)cc1 [Compound I-259, N-[(S)-{4-[(hydroxyamino)carbonyl]phenyl}(phenyl)methyl]adamantane-1-carboxamide]",,IC50 [1]: 500 to 1000 nM
"CC(C)C(NC(=O)c1ccc(F)cc1)c1ccc(C(=O)NO)cc1 (stereo not shown) [Compound I-40, 4-fluoro-N-(1-{4-[(hydroxyamino)carbonyl]phenyl}-2-methylpropyl)benzamide]",100 to 500 nM,
"CC(NC(=O)Nc1ccc2c(c1)CCO2)c1ccc(C(=O)NO)cc1 (stereo not shown) [Compound I-148, 4-(1-{[(2,3-dihydro-1-benzofuran-5-ylamino)carbonyl]amino}ethyl)-N-hydroxybenzamide]",< 100 nM,

SMILES,IC50 [2],further results
"CC(NC(=O)c1cc2ccccc2n1C)c1ccc(C(=O)NO)cc1 (stereo not shown) [Compound I-98, N-(1-{4-[(hydroxyamino)carbonyl]phenyl}ethyl)-1-methyl-1H-indole-2-carboxamide]",< 100 nM,
"CC(C)(C)C(NC(=O)c1csc2ccccc12)c1ccc(C(=O)NO)cc1 (stereo not shown) [Compound I-158, N-(1-{4-[(hydroxyamino)carbonyl]phenyl}-2,2-dimethylpropyl)-1-benzothiophene-3-carboxamide]",100 to 500 nM,
"Cc1ccc(NC(=O)NC(C)c2ccc(C(=O)NO)cc2)cc1Cl (stereo not shown) [Compound I-103, 4-[1-({[(3-chloro-4-methylphenyl)amino]carbonyl}amino)ethyl]-N-hydroxybenzamide]",< 100 nM,
CC(NC(=O)CC12CC3CC(CC(C3)C1)C2)c1ccc(C(=O)NO)cc1 (stereo not shown) [Compound I-212],,IC50 (bin: greater than 1 μM): > 1000 nM
"Cc1cc(C)n2nc(C(=O)NC(C)c3ccc(C(=O)NO)cc3)cc2n1 (stereo not shown) [Compound I-160, N-(1-{4-[(hydroxyamino)carbonyl]phenyl}ethyl)-5,7-dimethylpyrazolo[1,5-a]pyrimidine-2-carboxamide]",< 100 nM,
"COc1ccc(C(=O)N[C@H](C)c2cccc(C(=O)NO)c2)cc1 [Compound I-193, N-hydroxy-3-{(1R)-1-[(4-methoxybenzoyl)amino]ethyl}benzamide]",100 to 500 nM,
"CC(C)(C)C(NC(=O)c1cnccn1)c1ccc(C(=O)NO)cc1 (stereo not shown) [Compound I-87, N-(1-{4-[(hydroxyamino)carbonyl]phenyl}-2,2-dimethylpropyl)pyrazine-2-carboxamide]",100 to 500 nM,
"CC(NC(=O)c1cccc(S(C)(=O)=O)c1)c1cccc(C(=O)NO)c1 (stereo not shown) [Compound I-199, N-(1-{3-[(hydroxyamino)carbonyl]phenyl}ethyl)-3-(methylsulfonyl)benzamide]",,IC50 [1]: 500 to 1000 nM
"Cc1c(C(=O)N[C@H](C)c2cccc(C(=O)NO)c2)oc2ccccc12 [Compound I-169, N-((1R)-1-{3-[(hydroxyamino)carbonyl]phenyl}ethyl)-3-methyl-1-benzofuran-2-carboxamide]",,IC50 (bin: greater than 1 μM): > 1000 nM
"CC(C)[C@@H](NC(=O)c1cc2ccccc2o1)c1ccc(C(=O)NO)cc1 [Compound I-22, N-((1R)-1-{4-[(hydroxyamino)carbonyl]phenyl}-2-methylpropyl)-1-benzofuran-2-carboxamide]",< 100 nM,
"CC(C)C(NC(=O)c1cnccn1)c1ccc(C(=O)NO)cc1 (stereo not shown) [Compound I-203, N-(1-{4-[(hydroxyamino)carbonyl]phenyl}-2-methylpropyl)pyrazine-2-carboxamide]",100 to 500 nM,
"CC(NC(=O)C12CC3CC(CC(C3)C1)C2)c1ccc(C(=O)NO)cc1 (stereo not shown) [Compound I-3, N-(1-{4-[(hydroxyamino)carbonyl]phenyl}ethyl)adamantane-1-carboxamide]",< 100 nM,
"CC(NC(=O)c1ccc(C(C)(C)C)cc1)c1cccc(C(=O)NO)c1 (stereo not shown) [Compound I-268, 3-{1-[(4-tert-butylbenzoyl)amino]ethyl}-N-hydroxybenzamide]",,IC50 [1]: 500 to 1000 nM
"COc1cccc(S(=O)(=O)NC(C)c2ccc(C(=O)NO)cc2)c1 (stereo not shown) [Compound I-23, N-hydroxy-4-(1-{[(3-methoxyphenyl)sulfonyl]amino}ethyl)benzamide]",100 to 500 nM,
"C[C@H](NC(=O)N[C@H](C)c1ccc(C(=O)NO)cc1)c1ccccc1 [Compound I-513, N-hydroxy-4-[(1R)-1-({[(1S)-1-phenylethyl]carbamoyl}amino)ethyl]benzamide]",< 100 nM,
"CC(NC(=O)c1ccc2ccccc2n1)c1ccc(C(=O)NO)cc1 (stereo not shown) [Compound I-128, N-(1-{4-[(hydroxyamino)carbonyl]phenyl}ethyl)quinoline-2-carboxamide]",< 100 nM,
"Cn1c(C(=O)NC(c2ccc(C(=O)NO)cc2)C(C)(C)C)cc(Cl)c1Cl (stereo not shown) [Compound I-386, 4,5-dichloro-N-(1-{4-[(hydroxyamino)carbonyl]phenyl}-2,2-dimethylpropyl)-1-methyl-1H-pyrrole-2-carboxamide]",,IC50 (bin: greater than 1 μM): > 1000 nM
